# Source: patent US4652575A, “2-(ethylene-thio methyl furanyl)amino thiazole derivatives having acid secretion inhibiting activity” (Medosan Industrie Biochimiche Riunite S.p.A., priority 1984, dated 1987)
# Like-named read-outs stand apart in the source and are kept apart here.
# Experiments:
# histamine H2 receptors [1] = target: T1, histamine H2 receptors (Cavia porcellus, UniProt P47747); assay: Antagonistic activity to the histamine H2 receptors "in vitro" on insulated atrium auricolas of Guinea pig heart; details: guinea pig, 0.5 h; for inhibition at 10 µM: read-out: Antagonizing activity to histamine H2 receptors, compound 1·10^-5 M/L; for inhibition at 1 µM: read-out: Antagonizing activity to histamine H2 receptors, compound 1·10^-6 M/L; for inhibition at 0.1 µM: read-out: Antagonizing activity to histamine H2 receptors, compound 1·10^-7 M/L
# T1 construct: tests on insulated atrium auricolas of Guinea pig heart; from tissue; host or cells: isolated guinea pig heart atrium
# gastric acid secretion = details: experimental tests on animals and humans; prior art; cited from earlier work
# gastric secretion = assay: Activity on gastric secretion "in vivo" (volume and total acidity of gastric juice after pylorus tieing, Shay); design: species or system male Wistar rats; details: for Total acidity gastric juice secretion / Volume gastric juice secretion / change in vivo at 20 mg/kg: 20 mg/kg oral
# [2] = Acute toxicity (DL50) in rat; details: in vivo, po
# Source text: The animals were kept under observation by checking mortality and possible pain signs for 15 days from start of test.
# histamine H2 receptors [3] = target: T1, histamine H2 receptors; details: Daly M. J., Br. J. Pharmac., 72, 49, 1982; cited from earlier work
# T1 sequence (P47747 whole entry): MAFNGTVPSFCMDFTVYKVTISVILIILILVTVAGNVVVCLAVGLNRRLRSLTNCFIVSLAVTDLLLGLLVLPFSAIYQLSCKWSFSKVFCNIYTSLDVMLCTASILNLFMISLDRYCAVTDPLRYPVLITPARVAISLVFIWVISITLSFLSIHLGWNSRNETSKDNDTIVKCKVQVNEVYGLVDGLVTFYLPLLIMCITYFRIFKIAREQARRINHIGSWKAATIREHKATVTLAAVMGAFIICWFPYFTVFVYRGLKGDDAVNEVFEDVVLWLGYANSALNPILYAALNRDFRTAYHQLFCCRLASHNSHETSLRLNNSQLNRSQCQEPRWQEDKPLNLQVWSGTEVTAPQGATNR
compound,measurement,setting,value
"CNC(=C[N+](=O)[O-])NCCSCc1ccc(CN(C)C)o1 [Ranitidine, reference compound]",inhibition at 10 µM,histamine H2 receptors [1]; histamine 1·10^-5 M/L,90%
same,inhibition at 10 µM,histamine H2 receptors [1]; histamine 1·10^-6 M/L,100%
same,inhibition at 10 µM,"histamine H2 receptors [1]; histamine 2,5·10^-7 M/L",100%
same,inhibition at 10 µM,histamine H2 receptors [1]; histamine 5·10^-6 M/L,95%
same,inhibition at 10 µM,histamine H2 receptors [1]; histamine 5·10^-7 M/L,100%
same,inhibition at 1 µM,histamine H2 receptors [1]; histamine 1·10^-5 M/L,36%
same,inhibition at 1 µM,histamine H2 receptors [1]; histamine 1·10^-6 M/L,97%
same,inhibition at 1 µM,"histamine H2 receptors [1]; histamine 2,5·10^-7 M/L",100%
same,inhibition at 1 µM,histamine H2 receptors [1]; histamine 5·10^-6 M/L,67%
same,inhibition at 1 µM,histamine H2 receptors [1]; histamine 5·10^-7 M/L,100%
same,inhibition at 0.1 µM,histamine H2 receptors [1]; histamine 1·10^-5 M/L,2%
same,inhibition at 0.1 µM,histamine H2 receptors [1]; histamine 1·10^-6 M/L,45%
same,inhibition at 0.1 µM,"histamine H2 receptors [1]; histamine 2,5·10^-7 M/L",85%
same,inhibition at 0.1 µM,histamine H2 receptors [1]; histamine 5·10^-6 M/L,25%
same,inhibition at 0.1 µM,histamine H2 receptors [1]; histamine 5·10^-7 M/L,70%
same,reduction of gastric acid secretion (in words),gastric acid secretion,effective to reduce the gastric acid secretion
same,Total acidity gastric juice secretion,gastric secretion; 6 hours before pilorus tieing,"0,12 mEq/4 hours"
same,Volume gastric juice secretion,gastric secretion; 6 hours before pilorus tieing,"4,8 ml/4 hours"
same,Total acidity gastric juice secretion,gastric secretion; 12 hours before pilorus tieing,"0,16 mEq/4 hours"
same,Volume gastric juice secretion,gastric secretion; 12 hours before pilorus tieing,"4,9 ml/4 hours"
same,Total acidity gastric juice secretion,gastric secretion; 24 hours before pilorus tieing,"0,17 mEq/4 hours"
same,Volume gastric juice secretion,gastric secretion; 24 hours before pilorus tieing,"5,3 ml/4 hours"
same,Total acidity gastric juice secretion,gastric secretion; 36 hours before pilorus tieing,"0,16 mEq/4 hours"
same,Volume gastric juice secretion,gastric secretion; 36 hours before pilorus tieing,"5,4 ml/4 hours"
same,change in vivo at 20 mg/kg,"gastric secretion; Rattus norvegicus, po, 6 hours before pilorus tieing, read-out: Total acidity gastric juice secretion, Variation %",-29%
same,change in vivo at 20 mg/kg,"gastric secretion; Rattus norvegicus, po, 6 hours before pilorus tieing, read-out: Volume gastric juice secretion, Variation %",-9%
same,change in vivo at 20 mg/kg,"gastric secretion; Rattus norvegicus, po, 12 hours before pilorus tieing, read-out: Total acidity gastric juice secretion, Variation %",6%
same,change in vivo at 20 mg/kg,"gastric secretion; Rattus norvegicus, po, 12 hours before pilorus tieing, read-out: Volume gastric juice secretion, Variation %",-4%
same,change in vivo at 20 mg/kg,"gastric secretion; Rattus norvegicus, po, 24 hours before pilorus tieing, read-out: Total acidity gastric juice secretion, Variation %",0%
same,change in vivo at 20 mg/kg,"gastric secretion; Rattus norvegicus, po, 24 hours before pilorus tieing, read-out: Volume gastric juice secretion, Variation %",-5%
same,change in vivo at 20 mg/kg,"gastric secretion; Rattus norvegicus, po, 36 hours before pilorus tieing, read-out: Total acidity gastric juice secretion, Variation %",0%
same,change in vivo at 20 mg/kg,"gastric secretion; Rattus norvegicus, po, 36 hours before pilorus tieing, read-out: Volume gastric juice secretion, Variation %",-3%
same,ED50,"gastric secretion; Rattus norvegicus, po, per os, 1 hour before pilorus tieing, read-out: DE50 in rat calculated on total acidity (mEq/4 hours)",5.2 mg/kg
same,LD50,[2],2000 mg/kg
same,LD50 at 360 h,[2],1600 mg/kg
same,antagonism of histamine induced increase of contraction frequency of the insulated atrium (in words),histamine H2 receptors [3],competitively antagonize
